Results from US20240108641A1, “COMPOSITIONS FOR ORAL ADMINISTRATION OF ZOLEDRONIC ACID OR RELATED COMPOUNDS FOR TREATING DISEASE” (ANTECIP BIOVENTURES II LLC, priority 2012, published 2024).

What was measured:
[1] = phase 1 clinical trial, bioavailability and pharmacokinetics of the oral dosage form versus IV Zometa; type: in vivo, human
Method: Dose amounts are based upon the weights of the molar equivalent amounts of the diacid form of zoledronic acid (e.g., the 50 mg oral dose contains about 71 mg of the disodium zoledronate tetrahydrate form). The dosage form had the composition shown in Table 3, and was coated with Opadry White, which as 3-5 wt % of the coated tablet. These dosage forms were free of bioavailability enhancing agents. For convenience, the dosage form described in Table 3 will be described in this Example as “the oral dosage form.”
Each subject received 2 of the following 4 treatments: one unit of the oral dosage form for a 50 mg dose (“the 50 mg oral dose”), two units of the oral dosage form taken together for a 100 mg dose (“the 100 mg oral dose”), or three units of the oral dosage form taken together for a 150 mg dose (“the 150 mg oral dose”), or a 1 mg IV dose of zoledronic acid (Zometa®). Each treatment was separated by a wash-out period of approximately 14 days. Blood samples were collected for 72 hours post-dose to characterize zoledronic acid pharmacokinetics. Blood samples were collected pre-dose and 7 and 14-15 days post-dose to measure the effects of the oral disodium tetrahydrate form of zoledronic acid and IV zoledronic acid on biomarkers of bone resorption.
All study medications which were orally administered were given with approximately 240 mL of water. Subjects remained upright for the first hour following study medication administration. Zoledronic acid IV infusion was at least 15 minutes in duration. All study medication was administered under fasting conditions.
Each treatment was separated by a washout period of approximately 14 days. Blood samples were collected for 72 hours post-dose to characterize zoledronic acid pharmacokinetics. Blood samples were collected pre-dose and 7 and 14-15 days post-dose to measure the effects of the oral dosage form and IV zoledronic acid on serum CTx.

[2] = system: chronic low back pain (LBP) and Modic changes; experiment: randomized placebo-controlled trial in chronic low back pain with Modic changes, low back symptoms and lumbar flexibility; type: in vivo, human; details: for Fingers-to-floor, Unadjusted analyses Difference (95% CI) / Intensity of LBP, Unadjusted analyses Difference (95% CI) / Intensity of leg pain, Unadjusted analyses Difference (95% CI) / Oswestry disability index, Unadjusted analyses Difference (95% CI) / Sidebending to left, Unadjusted analyses Difference (95% CI) / Sidebending to right, Unadjusted analyses Difference (95% CI) / Fingers-to-floor, Adjusted analyses Difference (95% CI) / Intensity of LBP, Adjusted analyses Difference (95% CI) / Intensity of leg pain, Adjusted analyses Difference (95% CI) / Oswestry disability index, Adjusted analyses Difference (95% CI) / Sidebending to left, Adjusted analyses Difference (95% CI) / Sidebending to right, Adjusted analyses Difference (95% CI): ZA versus placebo; for Fingers-to-floor, Adjusted analyses Difference (95% CI) / Intensity of LBP, Adjusted analyses Difference (95% CI) / Intensity of leg pain, Adjusted analyses Difference (95% CI) / Oswestry disability index, Adjusted analyses Difference (95% CI) / Sidebending to left, Adjusted analyses Difference (95% CI) / Sidebending to right, Adjusted analyses Difference (95% CI): adjusted for baseline; for Intensity of LBP, Mean (SD) original values: 10 cm VAS
Method: A study was performed to evaluate the efficacy of a single intravenous infusion of 5 mg ZA in comparison with intravenous placebo infusion among patients with chronic low back pain (LBP) and Modic changes on MRI. This study was a double-blinded, randomized, placebo-controlled clinical trial in patients with low back pain (LBP). Patients were included in the study if they had low back symptoms for at least three months, an LBP of at least six (6) on a 10-cm Visual Analog Scale (VAS) or an Oswestry Disability Index (ODI) of at least 30%, and an M1, mixed M1/2 or M2 type change on MRI performed within six months at most prior to enrolment.
Patients were excluded from the study if they had renal impairment with reduced creatinine clearance defined as an estimated glomerular filtration rate (eGFR) below 40 ml/min, hypocalcemia, known hypersensitivity to zoledronic acid or other bisphosphonates or ingredients of the infusion product, the presence of red flags, nerve root entrapment or willingness for early retirement. Premenopausal women of childbearing potential were also excluded. Blood samples were taken prior to the infusion to assess the serum concentration of calcium and creatinine. The clinical examination included medical history and clinical assessment of lumbar flexibility, tendon signs, and motor and sensory testing.
After confirmation of eligibility patients were randomized to receive a single intravenous infusion of 5 mg zoledronic acid (n=20) or 100 ml saline as placebo (n=20) over a 15-minute period. Information on use of the concomitant medication and hospital admissions were recorded. Blood samples were taken for the assessment of safety, inflammatory mediators and markers of bone turnover at baseline, one month and one year.
Clinical assessments were performed 14 days before enrolment (screening visit), and follow-up visits at one month and one year after the infusion. The primary outcome was the change in the intensity of LBP on VAS. Secondary outcomes included leg pain intensity, ODI, health-related quality of life assessed with RAND-36, patient-reported sick leaves and lumbar flexibility. These outcome measures were assessed at baseline and at each follow-up. Lumbar flexibility was evaluated using the fingers-to-floor and trunk side bending measures (in cm). The percentage of patients undergoing a 20% relative improvement, the proportion of patients reaching a VAS score of 40 or less in the primary outcome, and patient acceptable symptom state (PASS) were also assessed. Pain medication use was inquired about during the follow-up visits.

[3] = 12 mos., single 5 mg IV infusion
[4] = one month, single 5 mg IV infusion

For `O=P(O)(O)C(O)(Cn1ccnc1)P(=O)(O)O` [zoledronic acid], the “Sustained Plasma Factor” value ([1]; 1 mg IV) was 4.6, the “Sustained Plasma Factor” value ([1]; 50 mg oral dose) was 13.5 and the “Sustained Plasma Factor Ratio (oral/IV)” value ([1]; 50 mg oral dose versus 1 mg IV) was 2.9. The “Sustained Plasma Factor” value ([1]; 100 mg oral dose) was 11.7, the “Sustained Plasma Factor Ratio (oral/IV)” value ([1]; 100 mg oral dose versus 1 mg IV) was 2.5 and the “Sustained Plasma Factor” value ([1]; 150 mg oral dose) was 15.1. For the same compound, the “Sustained Plasma Factor Ratio (oral/IV)” value ([1]; 150 mg oral dose versus 1 mg IV) was 3.3, the “Fingers-to-floor, Unadjusted analyses Difference (95% CI)” value ([2]; 1 mo.) was 5.0 (−4.8 to 15) cm and the “Intensity of LBP, Unadjusted analyses Difference (95% CI)” value ([2]; 1 mo.) was 1.3 (−0.2 to 2.8). The “Intensity of leg pain, Unadjusted analyses Difference (95% CI)” value ([2]; 1 mo.) was 0.8 (−0.9 to 2.4), the “Oswestry disability index, Unadjusted analyses Difference (95% CI)” value ([2]; 1 mo.) was 4.3 (−2.5 to 11) % and the “Sidebending to left, Unadjusted analyses Difference (95% CI)” value ([2]; 1 mo.) was −1.5 (−3.2 to 0.1) cm. The “Sidebending to right, Unadjusted analyses Difference (95% CI)” value ([2]; 1 mo.) was −2.0 (−4.3 to 0.4) cm, the “Fingers-to-floor, Adjusted analyses Difference (95% CI)” value ([2]; 1 mo.) was 3.6 (−5.0 to 12) cm and the “Intensity of LBP, Adjusted analyses Difference (95% CI)” value ([2]; 1 mo.) was 1.4. For the same compound, the “Intensity of leg pain, Adjusted analyses Difference (95% CI)” value ([2]; 1 mo.) was 0.8 (−0.6 to 2.2), the “Oswestry disability index, Adjusted analyses Difference (95% CI)” value ([2]; 1 mo.) was 6.0% and the “Sidebending to left, Adjusted analyses Difference (95% CI)” value ([2]; 1 mo.) was −1.7 (−3.4 to 0.0) cm. For the same compound, the “Sidebending to right, Adjusted analyses Difference (95% CI)” value ([2]; 1 mo.) was −2.0 (−4.4 to 0.3) cm, the “Intensity of LBP, Adjusted analyses Difference (95% CI)” value ([2]; 1 mo., listed as ZA) was 1.4 (0.01 to 2.9) and the “Oswestry disability index, Adjusted analyses Difference (95% CI)” value ([2]; 1 mo., listed as ZA) was 6.0 (−0.6 to 13) %. The “Fingers-to-floor, Mean (SD) change” value ([2]; 1 mo., single 5 mg IV infusion) was −5.1 (20) cm, the “Fingers-to-floor, Mean (SD) original values” ([2]; 1 mo., single 5 mg IV infusion) was 17 (17) cm and the “Intensity of LBP, Mean (SD) change” value ([2]; 1 mo., single 5 mg IV infusion) was −2.2 (2.7). For the same compound, the “Intensity of leg pain, Mean (SD) change” value ([2]; 1 mo., single 5 mg IV infusion) was −0.6 (2.4), the “Intensity of leg pain, Mean (SD) original values” ([2]; 1 mo., single 5 mg IV infusion) was 2.0 (2.3) and the “Oswestry disability index, Mean (SD) change” value ([2]; 1 mo., single 5 mg IV infusion) was −5.9 (11) %. For the same compound, the “Oswestry disability index, Mean (SD) original values” ([2]; 1 mo., single 5 mg IV infusion) was 24 (10) %, the “Sidebending to left, Mean (SD) change” value ([2]; 1 mo., single 5 mg IV infusion) was 1.1 (3.0) cm and the “Sidebending to left, Mean (SD) original values” ([2]; 1 mo., single 5 mg IV infusion) was 16.1 (5.3) cm. For the same compound, the “Sidebending to right, Mean (SD) change” value ([2]; 1 mo., single 5 mg IV infusion) was 1.5 (4.7) cm, the “Sidebending to right, Mean (SD) original values” ([2]; 1 mo., single 5 mg IV infusion) was 15.7 (5.9) cm and the “Intensity of LBP, Mean (SD) original values” ([2]; 1 mo., single 5 mg IV infusion) was 4.3 (2.3). The “Fingers-to-floor, Unadjusted analyses Difference (95% CI)” value ([2]; 12 mos.) was 7.1 (−4.3 to 18) cm, the “Intensity of LBP, Unadjusted analyses Difference (95% CI)” value ([2]; 12 mos.) was 0.6 (−1.1 to 2.4) and the “Intensity of leg pain, Unadjusted analyses Difference (95% CI)” value ([2]; 12 mos.) was 0.6 (−1.5 to 2.7). The “Oswestry disability index, Unadjusted analyses Difference (95% CI)” value ([2]; 12 mos.) was 3.1 (−5.6 to 12) %, the “Sidebending to left, Unadjusted analyses Difference (95% CI)” value ([2]; 12 mos.) was −0.7 (−3.5 to 2.1) cm and the “Sidebending to right, Unadjusted analyses Difference (95% CI)” value ([2]; 12 mos.) was −1.6 (−4.3 to 1.1) cm. The “Fingers-to-floor, Adjusted analyses Difference (95% CI)” value ([2]; 12 mos.) was 5.3 (−4.5 to 15) cm, the “Intensity of LBP, Adjusted analyses Difference (95% CI)” value ([2]; 12 mos.) was 0.7 and the “Intensity of leg pain, Adjusted analyses Difference (95% CI)” value ([2]; 12 mos.) was 0.5 (−1.3 to 2.2). The “Oswestry disability index, Adjusted analyses Difference (95% CI)” value ([2]; 12 mos.) was 5.1 (−3.4 to 14) %, the “Sidebending to left, Adjusted analyses Difference (95% CI)” value ([2]; 12 mos.) was −1.0 (−3.8 to 1.8) cm and the “Sidebending to right, Adjusted analyses Difference (95% CI)” value ([2]; 12 mos.) was −1.7 (−4.2 to 0.8) cm. For the same compound, the “Intensity of LBP, Adjusted analyses Difference (95% CI)” value ([2]; 12 mos., listed as ZA) was 0.7 (−1.0 to 2.4), the “Fingers-to-floor, Mean (SD) change” value [2, 3] was −6.3 (23) cm and the “Fingers-to-floor, Mean (SD) original values” [2, 3] was 16 (16) cm. The “Intensity of LBP, Mean (SD) change” value [2, 3] was −2.8 (2.9), the “Intensity of leg pain, Mean (SD) change” value [2, 3] was −0.9 (3.4) and the “Intensity of leg pain, Mean (SD) original values” [2, 3] was 2.1 (2.8). The “Oswestry disability index, Mean (SD) change” value [2, 3] was −5.0 (15) %, the “Oswestry disability index, Mean (SD) original values” [2, 3] was 25 (13) % and the “Sidebending to left, Mean (SD) change” value [2, 3] was 1.2 (5.3) cm. The “Sidebending to left, Mean (SD) original values” [2, 3] was 16.2 (6.7) cm, the “Sidebending to right, Mean (SD) change” value [2, 3] was 1.6 (4.8) cm and the “Sidebending to right, Mean (SD) original values” [2, 3] was 15.7 (5.6) cm. The “Intensity of LBP, Mean (SD) original values” [2, 3] was 3.8 (2.5), the “Pain Reduction, VAS Change from Baseline” value ([2]; Baseline VAS < 6, single 5 mg IV infusion) was −0.1 cm and the “Pain Reduction, VAS Change from Baseline” value ([2]; Baseline VAS ≥ 6 and <7, single 5 mg IV infusion) was −2.3 cm. For the same compound, the “Pain Reduction, VAS Change from Baseline” value ([2]; Baseline VAS ≥ 7, single 5 mg IV infusion) was −3.4 cm, the “mean reduction in pain from baseline” value ([2]; baseline pain intensity <6, single 5 mg IV infusion) was 0.1 and the “mean reduction in pain from baseline” value ([2]; baseline pain intensity ≥7, single 5 mg IV infusion) was 3.4. For the same compound, the “proportion of patients reaching patient acceptable symptom state (PASS)” value [2, 4] was 50%, the “proportion of patients with at least 20% improvement in intensity of LBP” value [2, 4] was 55% and the “patients using NSAIDs” value ([2]; one year, single 5 mg IV infusion) was 20%.
